Source: patent US20260199484A1, “PROTAC DEGRADERS OF MLLT1 AND/OR MLLT3” (DARK BLUE THERAPEUTICS LTD, priority 2024, published 2026)

Molecular target: T1, MLLT1 (Homo sapiens, UniProt Q03111)
T1 sequence (Q03111 1-559): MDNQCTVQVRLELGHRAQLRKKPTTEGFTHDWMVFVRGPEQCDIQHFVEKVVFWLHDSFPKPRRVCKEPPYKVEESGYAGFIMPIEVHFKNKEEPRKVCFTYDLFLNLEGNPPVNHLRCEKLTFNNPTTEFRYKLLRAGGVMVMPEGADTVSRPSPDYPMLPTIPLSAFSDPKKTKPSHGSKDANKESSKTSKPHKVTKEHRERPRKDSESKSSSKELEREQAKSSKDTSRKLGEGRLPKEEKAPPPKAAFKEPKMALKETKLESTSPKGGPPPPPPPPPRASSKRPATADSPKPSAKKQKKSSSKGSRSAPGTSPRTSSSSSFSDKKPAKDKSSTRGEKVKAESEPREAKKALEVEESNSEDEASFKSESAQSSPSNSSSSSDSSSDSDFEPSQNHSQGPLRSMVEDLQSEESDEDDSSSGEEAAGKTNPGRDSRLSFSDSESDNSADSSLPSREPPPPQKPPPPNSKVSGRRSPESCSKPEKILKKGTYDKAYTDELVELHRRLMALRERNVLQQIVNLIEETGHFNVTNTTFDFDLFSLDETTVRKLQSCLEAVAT
Assay: MLLT1 degradation assay in MV4-11 cells (JESS, 24 h)
Assay type: cell-based
Design: endogenous in cells; host or cells: MV4-11 (ATCC CRL-9591)
Conditions: vs DMSO control
Protocol: MLLT1 degradation efficacy of compounds was tested in an automated chemiluminescent detection system (JESS, Cat #004-650). MV4-11 (#CRL-9591, ATCC) cells were seeded at a density of 1.2 million cells/well in a non-treated 6-well cell culture plate in 2.4 mL of complete medium (IMDM+10% FBS+1× Penicillin-Streptomycin). 10 mM DMSO stocks were prepared, and cells were treated with three concentrations of test compounds viz. 1000, 100 and 10 nM at a final DMSO concentration of 0.1% and incubated for 24 h at 37° C., 5% CO2. Post incubation, cells were centrifuged, washed with HBSS and lysed in 70 μL of RIPA buffer supplemented with Protease inhibitors (sc-24948; Santa Cruz). Subsequently, protein estimation was done using BCA protein assay kit (23225; Pierce). 4 ug protein lysate (4 uL of 1 ug/uL lysate) was loaded into each well of the JESS cartridge (SM-W001; Bio-techne) and the JESS run was performed using 1:900 dilution of anti-human MLLT1 antibody (14893; Cell signaling technology) and 1:1200 dilution of anti-human GAPDH antibody (2118; Cell signaling technology) with anti-rabbit secondary detection module (DM-001; Bio-Techne). Post run, data were analysed using “Compass for SW” software for chemiluminescent detection. The peak area for each band was used for the calculation of MLLT1 degradation with respect to DMSO control. Data is shown as “MLLT1% degradation”. • Category A: A≥75% degradation • Category B: 50%≤B<75% degradation • Category C: 25%≤C<50% degradation • Category D: D<25% degradation

| SMILES | MLLT1% Degradation @ 0.01 μM | MLLT1% Degradation @ 0.1 μM | MLLT1% Degradation @ 1 μM |
| --- | --- | --- | --- |
| Cc1nn(CCCCCCCC#Cc2ccc(C(=O)N[C@H]3CCC(=O)NC3=O)nc2)c2cc(C(=O)Nc3cc4[nH]c([C@H]5CCCN5C)cc4cn3)ccc12 [Example 41, 1-(9-(6-(((S)-2,6-dioxopiperidin-3-yl)carbamoyl)pyridin-3-yl)non-8-yn-1-yl)-3-methyl-N-(2-((R)-1-methylpyrrolidin-2-yl)-1H-pyrrolo[3,2-c]pyridin-6-yl)-1H-indazole-6-carboxamide] | D (Category D: D<25% degradation) | C (Category C: 25%≤C<50% degradation) | B (Category B: 50%≤B<75% degradation) |
| Cc1nn(CCCCCCCC#Cc2ccnc(C(=O)N[C@H]3CCC(=O)NC3=O)c2)c2cc(C(=O)Nc3cc4[nH]c([C@H]5CCCN5C)cc4cn3)ccc12 [Example 43, 1-(9-(2-(((S)-2,6-dioxopiperidin-3-yl)carbamoyl)pyridin-4-yl)non-8-yn-1-yl)-3-methyl-N-(2-((R)-1-methylpyrrolidin-2-yl)-1H-pyrrolo[3,2-c]pyridin-6-yl)-1H-indazole-6-carboxamide] | C (Category C: 25%≤C<50% degradation) | B (Category B: 50%≤B<75% degradation) | A (Category A: A≥75% degradation) |
| Cc1nn(CCCCCCCC#Cc2cccc(C(=O)N[C@H]3CCC(=O)NC3=O)c2F)c2cc(C(=O)Nc3cc4[nH]c([C@H]5CCCN5C)cc4cn3)ccc12 [Example 51, 1-(9-(3-(((S)-2,6-dioxopiperidin-3-yl)carbamoyl)-2-fluorophenyl)non-8-yn-1-yl)-3-methyl-N-(2-((R)-1-methylpyrrolidin-2-yl)-1H-pyrrolo[3,2-c]pyridin-6-yl)-1H-indazole-6-carboxamide] | C (Category C: 25%≤C<50% degradation) | B (Category B: 50%≤B<75% degradation) | A (Category A: A≥75% degradation) |

The remaining lines, values ahead:

| MLLT1% Degradation @ 0.01 μM | MLLT1% Degradation @ 0.1 μM | MLLT1% Degradation @ 1 μM | SMILES |
| --- | --- | --- | --- |
| A (Category A: A≥75% degradation) | A (Category A: A≥75% degradation) | A (Category A: A≥75% degradation) | Cc1nn(CCCCCOCC#Cc2cccc3c2CN(C2CCC(=O)NC2=O)C3=O)c2cc(C(=O)Nc3cc4[nH]c([C@H]5CCCN5C)cc4cn3)ccc12 (stereo partly drawn) [Example 49, 1-(5-((3-(2-(2,6-dioxopiperidin-3-yl)-1-oxoisoindolin-4-yl)prop-2-yn-1-yl)oxy)pentyl)-3-methyl-N-(2-((R)-1-methylpyrrolidin-2-yl)-1H-pyrrolo[3,2-c]pyridin-6-yl)-1H-indazole-6-carboxamide] |
| A (Category A: A≥75% degradation) | A (Category A: A≥75% degradation) | A (Category A: A≥75% degradation) | Cc1nn(CCOCCCCC#Cc2cccc3c2CN(C2CCC(=O)NC2=O)C3=O)c2cc(C(=O)Nc3cc4[nH]c([C@H]5CCCN5C)cc4cn3)ccc12 (stereo partly drawn) [Example 50, 1-(2-((6-(2-(2,6-dioxopiperidin-3-yl)-1-oxoisoindolin-4-yl)hex-5-yn-1-yl)oxy)ethyl)-3-methyl-N-(2-((R)-1-methylpyrrolidin-2-yl)-1H-pyrrolo[3,2-c]pyridin-6-yl)-1H-indazole-6-carboxamide] |
| C (Category C: 25%≤C<50% degradation) | B (Category B: 50%≤B<75% degradation) | A (Category A: A≥75% degradation) | Cc1nn(CCCCCCCC#Cc2cc3c(cc2F)C(=O)N(C2CCC(=O)NC2=O)C3)c2cc(C(=O)Nc3cc4[nH]c([C@H]5CCCN5C)cc4cn3)ccc12 (stereo partly drawn) [Example 60, 1-(9-(2-(2,6-dioxopiperidin-3-yl)-6-fluoro-1-oxoisoindolin-5-yl)non-8-yn-1-yl)-3-methyl-N-(2-((R)-1-methylpyrrolidin-2-yl)-1H-pyrrolo[3,2-c]pyridin-6-yl)-1H-indazole-6-carboxamide] |
